# Measured values as given in US11325899B2, “Benzofurane and benzothiophene derivatives as PGE2 receptor modulators” (IDORSIA PHARMACEUTICALS LTD, priority 2017, dated 2022).
# Molecular target: T1, EP2 receptor (Homo sapiens, UniProt P43116)
# T1 construct: SF295 glioblastoma cells express high endogenous EP2 and no EP4; host or cells: SF295 glioblastoma cells
# Test: hEP2 cAMP assay (SF295 glioblastoma cells, HTRF cAMP, PGE2 stimulation)
# Assay type: cell-based
# Conditions: antagonistic activity
# How it was run: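 SF295 glioblastoma cells with endogenous EP2 and no EP4, in HBSS/HEPES/BSA with 2 mM IBMX, pre-incubated 45 min at room temperature with compound, then stimulated 30 min with 75 nM PGE2 (EC80). cAMP measured by HTRF; IC50 fitted from duplicate % cAMP versus DMSO control.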
# T1 sequence (P43116 whole entry): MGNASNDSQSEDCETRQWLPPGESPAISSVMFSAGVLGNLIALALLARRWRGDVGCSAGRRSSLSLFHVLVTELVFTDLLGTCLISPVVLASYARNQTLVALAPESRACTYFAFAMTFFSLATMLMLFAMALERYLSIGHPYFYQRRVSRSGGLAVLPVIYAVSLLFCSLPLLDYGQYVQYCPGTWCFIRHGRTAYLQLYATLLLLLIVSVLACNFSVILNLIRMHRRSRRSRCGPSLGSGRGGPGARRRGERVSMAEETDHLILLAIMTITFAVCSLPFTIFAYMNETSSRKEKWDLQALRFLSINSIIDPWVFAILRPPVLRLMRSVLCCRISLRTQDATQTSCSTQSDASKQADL
row,SMILES,IC50 [nM]
1,"COc1ccc(Cl)c2c(CCNc3cc(-c4ccc(C(=O)O)c(SC)c4)ncn3)c(C)sc12 [Example 15, 4-{6-[2-(4-Chloro-7-methoxy-2-methyl-benzo[b]thiophen-3-yl)-ethylamino]-pyrimidin-4-yl}-2-methylsulfanyl-benzoic acid]",21
2,"CSc1cc(-c2cc(NCCc3c(C)sc4c(C)c(F)ccc34)ncn2)ccc1C(=O)O [Example 21, 4-{6-[2-(6-Fluoro-2,7-dimethyl-benzo[b]thiophen-3-yl)-ethylamino]-pyrimidin-4-yl}-2-methylsulfanyl-benzoic acid]",24
3,"CCOc1cc(-c2cc(NCCc3c(C)sc4c(C)ccc(Cl)c34)ncn2)sc1C(=O)O [Example 29, 5-{6-[2-(4-Chloro-2,7-dimethyl-benzo[b]thiophen-3-yl)-ethylamino]-pyrimidin-4-yl}-3-ethoxy-thiophene-2-carboxylic acid]",14
4,"CSc1cc(-c2cc(NCCc3c(C)sc4ccccc34)ncn2)ccc1C(=O)O [Example 24, 4-{6-[2-(2-Methyl-benzo[b]thiophen-3-yl)-ethylamino]-pyrimidin-4-yl}-2-methylsulfanyl-benzoic acid]",4
5,"CCOc1cc(-c2cc(NCCc3c(C)oc4c(C)cc(F)cc34)ncn2)sc1C(=O)O [Example 37, 3-Ethoxy-5-{6-[2-(5-fluoro-2,7-dimethyl-benzofuran-3-yl)-ethylamino]-pyrimidin-4-yl}-thiophene-2-carboxylic acid]",2
6,"CSc1cc(-c2cc(NCCc3c(C)sc4c(C)ccc(Cl)c34)ncn2)ccc1C(=O)O [Example 19, 4-{6-[2-(4-Chloro-2,7-dimethyl-benzo[b]thiophen-3-yl)-ethylamino]-pyrimidin-4-yl}-2-methylsulfanyl-benzoic acid]",83
7,"CSc1cc(-c2cc(NCCc3c(C)oc4ccccc34)ncn2)ccc1C(=O)O [Example 18, 4-{6-[2-(2-Methyl-benzofuran-3-yl)-ethylamino]-pyrimidin-4-yl}-2-methylsulfanyl-benzoic acid]",1
8,"CCOc1cc(-c2cc(NCCc3c(C)oc4c(OC)ccc(F)c34)ncn2)sc1C(=O)O [Example 34, 3-Ethoxy-5-{6-[2-(4-fluoro-7-methoxy-2-methyl-benzofuran-3-yl)-ethylamino]-pyrimidin-4-yl}-thiophene-2-carboxylic acid]",6

# Results, then the compound that gave them:
row,IC50 [nM],SMILES
1,49,"COc1cc(F)c(F)c2c(CCNc3cc(-c4ccc(C(=O)O)c(OC5CC5)c4)ncn3)c(C)oc12 [Example 85, 2-Cyclopropoxy-4-{6-[2-(4,5-difluoro-7-methoxy-2-methyl-benzofuran-3-yl)-ethylamino]-pyrimidin-4-yl}-benzoic acid]"
2,6,"Cc1sc2c(C)cc(F)cc2c1CCNc1cc(-c2ccc(C(=O)O)c(OC3CC3)c2)ncn1 [Example 195, 2-Cyclopropoxy-4-{6-[2-(5-fluoro-2,7-dimethyl-benzo[b]thiophen-3-yl)-ethylamino]-pyrimidin-4-yl}-benzoic acid]"
3,19,"CCOc1cc(-c2cc(NCCc3c(C)sc4c(C)cc(F)cc34)ncn2)ccc1C(=O)O [Example 56, 2-Ethoxy-4-{6-[2-(5-fluoro-2,7-dimethyl-benzo[b]thiophen-3-yl)-ethylamino]-pyrimidin-4-yl}-benzoic acid]"
4,5,"CCCSc1cc(-c2cc(NCCc3c(C)oc4ccccc34)ncn2)ccc1C(=O)O [Example 89, 4-{6-[2-(2-Methyl-benzofuran-3-yl)-ethylamino]-pyrimidin-4-yl}-2-propylsulfanyl-benzoic acid]"
5,7,"CCOc1cc(-c2cc(NCCc3c(C)oc4c(C)cc(Cl)cc34)ncn2)ccc1C(=O)O [Example 64, 4-{6-[2-(5-Chloro-2,7-dimethyl-benzofuran-3-yl)-ethylamino]-pyrimidin-4-yl}-2-ethoxy-benzoic acid]"
6,80,"CCOc1cc(-c2cc(NCCc3c(C)oc4c(OC)cc(Cl)cc34)ncn2)ccc1C(=O)O [Example 70, 4-{6-[2-(5-Chloro-7-methoxy-2-methyl-benzofuran-3-yl)-ethylamino]-pyrimidin-4-yl}-2-ethoxy-benzoic acid]"
